Experimental findings from patent publication US20140369979A1, “VECTOR SIMULTANEOUSLY EXPRESSING DODECAMERIC TRAIL AND HSV-TK SUICIDE GENES, AND ANTICANCER STEM CELL THERAPEUTIC AGENT USING SAME” (POSTECH ACADEMY-INDUSTRY FOUNDATION, priority 2012, published 2014) are described below.

For experiment [1], the system named is TRAIL expression by MSC/dTRAIL-TK. Briefly: TRAIL expression of MSC/dTRAIL-TK after GCV treatment (ELISA of culture broth). It counts as cell-based, rat. The conditions noted are these: GCV 10, 30, 100 μM, culture broth every 24 hours. Here is the method:
Next, in order to examine whether TRAIL expression is reduced by MSC/dTRAIL-TK apoptosis, GCV was treated at the same concentrations, and the culture broth was collected every 24 hours to examine TRAIL expression by ELISA (enzyme-linked immunosorbent assay).
Background: In an ELISA, binding on a coated surface is turned into a signal by an enzyme label.

The test system of the next experiment is MSC/dTRAIL-TK. Briefly: Survival rate of MSC/dTRAIL-TK after GCV treatment (MTS method). It counts as cell-based, rat. The conditions noted are these: 100 μM GCV, one week after treatment. Here is the method: In order to examine the suicide induction effect of MSC/dTRAIL-TK by GCV treatment, cells were treated with 10, 30, and 100 μM of GCV. From 1 day after GCV treatment, survival rate of MSC/dTRAIL-TK was examined by an MTS method every other day.

In the case of `Nc1nc(O)c2ncn(COC(CO)CO)c2n1` [GCV, ganciclovir], in experiment [1], the TRAIL expression entry is recorded as “TRAIL expression was reduced”. The “survival rate of MSC/dTRAIL-TK” value with MSC/dTRAIL-TK is listed as “almost all cells were eliminated”.
